Measured values reported in ChEMBL document CHEMBL1148906, “Two pyranocoumarins from the seeds of Calophyllum polyanthum” (2004).

System: Human alphaherpesvirus 2
Assay: Antiherpetic activity against HSV2 in african green monkey Vero cells assessed as inhibition of virus-induced cytopathic effect
Type: functional
Settings: Human alphaherpesvirus 2, Vero

Compound | GI50
CC(C)=CCc1c(O)c2c(c3c1OC(=O)C[C@H]3c1ccccc1)O[C@@H](C)[C@H](C)C2=O [CALOPOLYANOLIDES C] | > 250 µg/mL
CC(C)=CCc1c(O)c2c(c3c1OC(=O)C[C@H]3c1ccccc1)O[C@@H](C)[C@@H](C)C2=O [CALOPOLYANOLIDE D] | > 250 µg/mL
